Legend:
[1] = Acute randomized placebo-controlled crossover trial of 200 mg TeaCrine: anchored VAS questionnaires; format: in vivo, human
Description: In order to examine the beneficial experiential effects and psychometric properties of theacrine supplementation in healthy subjects, explore optimal dosing and potential cumulative effects in a healthy human cohort with a 7-day, sub-acute repetitive dosing protocol, and acquire preliminary data on various biomarkers of safety and tolerability, an experiment was performed. […] A subset of 6 subjects underwent a separate 7-day, open-label, repeated dose study comparing 100 mg, 200 mg and 400 mg of TC. The experiment was a randomized, placebo-controlled, double-blind, within-subject crossover clinical trial (for N=15 study). A further subset study was open-label, sub-acute (7-day), repetitive dosing trial (for N=6 subset). Six (6) subjects provided written and dated informed consent to participate in the 7-day repetitive dosing study between Dec. 15, 2012 and Feb. 21, 2013. A separate cohort of fifteen (15) subjects provided written and dated informed consent for the acute dose, placebo-controlled, crossover clinical trial. All subjects were in good health as determined by physical examination and medical history, between the ages of 18 and 45 (inclusive). […] Subjects were willing and able to comply with the experimental and supplement protocol. […] Physical activity levels and health history were determined using standardized questionnaires. Heart rate and blood pressure were measured using an Omron HEM-780. Standing height was determined using a wall-mounted stadiometer. […] Medical Scale. A 100 mm anchored VAS questionnaire for energy, fatigue, and concentration was distributed at each acute lab session; additional VAS questionnaires were distributed for the daily assessment over a 6-hour period during the 7-day subset study. Quest Diagnostics (Pittsburgh, Pa.) was utilized to transport and analyze all blood samples. […] Statistical Analyses for Example 1. Descriptive statistics (mean, median, SD, 95% CIs) were used to quantify subjects physical characteristics. RM ANOVA, as well analyses of co-variance (ANCOVA), using baseline scores as the co-variate (respectively), were used to analyze between trial differences. Alpha was set to 0.05 (P≤0.05) for statistical significance, and <0.10 for trends. Effect sizes were also calculated. Upon arrival for the first testing session, subjects were randomly assigned to receive their respective supplement/placebo. Each subject ingested the sponsor recommended dosage of their respective supplement (1 capsule prior to schedule of assessments). Supplements were prepared in capsule form and packaged in coded generic containers for double-blind administration.

[2] = 7-day open-label repeated dose study of TC (N=6): VAS subjective measures; format: in vivo, human; conditions: 200 mg dose of theacrine over 7 days
Description: A subset of 6 subjects underwent a separate 7-day, open-label, repeated dose study comparing 100 mg, 200 mg and 400 mg of TC. The experiment was a randomized, placebo-controlled, double-blind, within-subject crossover clinical trial (for N=15 study). A further subset study was open-label, sub-acute (7-day), repetitive dosing trial (for N=6 subset). Six (6) subjects provided written and dated informed consent to participate in the 7-day repetitive dosing study between Dec. 15, 2012 and Feb. 21, 2013. A separate cohort of fifteen (15) subjects provided written and dated informed consent for the acute dose, placebo-controlled, crossover clinical trial. All subjects were in good health as determined by physical examination and medical history, between the ages of 18 and 45 (inclusive). […] Subjects were willing and able to comply with the experimental and supplement protocol. Physical activity levels and health history were determined using standardized questionnaires. Heart rate and blood pressure were measured using an Omron HEM-780. Standing height was determined using a wall-mounted stadiometer. […] Medical Scale. A 100 mm anchored VAS questionnaire for energy, fatigue, and concentration was distributed at each acute lab session; additional VAS questionnaires were distributed for the daily assessment over a 6-hour period during the 7-day subset study. Quest Diagnostics (Pittsburgh, Pa.) was utilized to transport and analyze all blood samples.

[3] = Single dose theacrine, caffeine or combination: subjective feelings on 10 cm visual analog scale; format: in vivo, human
Description: Subjects rated their subjective feelings using a 10 cm visual analog scale at 30 minutes, 1, 2, 3, 4, and 5 hours post ingestion and performed the trail making test (TMT) of cognitive performance at baseline and at hours 2 and 4 post ingestion.

[4] = Fourteen day study of repetitive dosing of theacrine and caffeine: psychometric indices; format: in vivo, human
[5] = cited from earlier work
[6] = system: A1 and A2A AR; conditions: rats; cited from earlier work

SMILES: Cn1c(=O)c2c(n(C)c1=O)n(C)c(=O)n2C [Theacrine, 1,3,7,9-tetramethylpurine-2,6,8-trione]
- concentration (VAS) ([1]; 200 mg dose of TC, single dose, trend, vs. PLA −[…], P=0.07): +2.4%
- fatigue (VAS) ([1]; 200 mg dose of TC, single dose, vs. PLA +5.8%, P=0.04): −6.7%
- energy (VAS) ([1]; 200 mg dose of TC, single dose, vs. PLA −5.7%, P=0.049): +8.6%
- perceived energy on VAS (FIG. 2) ([1]; 1, 2 and 3 hours after administration, vs placebo): higher levels of energy
- perceived fatigue on VAS (FIG. 3) ([1]; 60 minutes after administration, vs placebo): lower levels of fatigue
- anxiety (FIG. 6) [2]: decreased substantially
- concentration (FIG. 7) [2]: increased substantially
- energy (FIG. 7) [2]: increased substantially
- fatigue (FIG. 6) [2]: decreased substantially
- libido (FIG. 6) [2]: increased substantially
- motivation to exercise (FIG. 7) [2]: increased substantially
- time post-ingestion at which increase in subjective focus reached statistical significance ([3]; 125 mg theacrine treatment): 3 h
- safety and improvement of subjective feelings related to energy ([3]; alone at 125 mg or in combination with caffeine): safe and effective
- anxiety [4]: decreased anxiety
- psychometric indices of energy, focus, concentration, motivation and mood [4]: still maintained elevated
- sensitization or pharmacodynamic tolerance ([5]; repeat dose theacrine studies): absence of either sensitization or pharmacodynamic tolerance
- safety, adverse effects on hemodynamic parameters ([5]; theacrine supplementation up to 400 mg/day for 8 weeks): appears to be safe
- theacrine stimulating activity under a cocktail containing both A1 and A2A AR antagonists [6]: blocks

From patent US11925645B2, “Enhanced caffeinated beverage composition” (Ortho-Nutra, LLC, priority 2013, dated 2024)
